The results in this text go back to patent US20230416205A1, “COMPOUNDS, COMPOSITIONS, AND METHODS” (Denali Therapeutics Inc, priority 2020, published 2023).

The term IC50 denotes the concentration at which inhibition is half-maximal.

This assay has as its system NLRP3. Kind of assay: IL-1β secretion assay in PMA-differentiated, LPS/nigericin-stimulated THP-1 cells (384-well, ELISA read-out). Type of assay: cell-based, human. As to conditions: Homo sapiens, THP-1, Table 4; IL-1β secretion, LPS/nigericin-stimulated THP-1 cells; read-out: IC50. In short, it runs like this:
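Secreted IL-1β quantified by capture ELISA from supernatants of PMA-differentiated THP-1 cells (30K per well). Sequence: LPS 25 ng/mL priming 2 h, compound 1 h, nigericin 2 h; dose-responses normalized between high (LPS plus 5 μM nigericin) and low (LPS alone) controls.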
Regarding `O=C(CN1CC2(CC2)c2cc(Br)ccc2C1=O)Nc1ncc(C2=COCC2)cn1` [Example 424, 2-(6-bromo-1-oxospiro[3H-isoquinoline-4,1′-cyclopropane]-2-yl)-N-[5-(2,3-dihydrofuran-4-yl)pyrimidin-2-yl]acetamide], the IC50 amounted to 0.7 µM.

Regarding `O=C(CN1CC2(CC2)c2cc(Br)ccc2C1=O)Nc1ncn(CC(F)(F)F)n1` [Example 425, 2-(6-bromo-1-oxospiro[3H-isoquinoline-4,1′-cyclopropane]-2-yl)-N-[1-(2,2,2-trifluoroethyl)-1,2,4-triazol-3-yl]acetamide], the IC50 came to 2.85 µM.

Consider `O=C(CN1CC2(CC2)c2cc(Br)ccc2C1=O)NC1CC(c2ccccc2)C1` (stereo not drawn) [Example 427, 2-(6-bromo-1-oxospiro[3H-isoquinoline-4,1′-cyclopropane]-2-yl)-N-(3-trans-phenylcyclobutyl)acetamide], for which the IC50 was 6.28 µM.

As to `O=C(CN1CC2(CC2)c2cc(Br)ccc2C1=O)Nc1nc2c(Cl)cccn2n1` [Example 429, 2-(6-bromo-1-oxospiro[3H-isoquinoline-4,1′-cyclopropane]-2-yl)-N-(8-chloro-[1,2,4]triazolo[1,5-a]pyridin-2-yl)acetamide], the IC50 is 1.66 µM.

On to `O=C(CN1CC2(CC2)c2cc(Br)ccc2C1=O)Nc1ccc(=O)[nH]n1` [Example 430, 2-(6-bromo-1-oxospiro[3H-isoquinoline-4,1′-cyclopropane]-2-yl)-N-(6-oxo-1H-pyridazin-3-yl)acetamide], for which the IC50 amounted to 0.634 µM.
